Measurements taken from patent US8344010B2, “Fused imidazole derivatives as TRPV3 antagonist” (Glenmark Pharmaceuticals S.A., priority 2008, dated 2013).

Biological target: T1, Human TRPV3 (Homo sapiens, UniProt Q8NET8)
T1 construct: expressed in transfected cells; host or cells: CHO cells (selected with G-418)
T1 sequence (Q8NET8 1-790): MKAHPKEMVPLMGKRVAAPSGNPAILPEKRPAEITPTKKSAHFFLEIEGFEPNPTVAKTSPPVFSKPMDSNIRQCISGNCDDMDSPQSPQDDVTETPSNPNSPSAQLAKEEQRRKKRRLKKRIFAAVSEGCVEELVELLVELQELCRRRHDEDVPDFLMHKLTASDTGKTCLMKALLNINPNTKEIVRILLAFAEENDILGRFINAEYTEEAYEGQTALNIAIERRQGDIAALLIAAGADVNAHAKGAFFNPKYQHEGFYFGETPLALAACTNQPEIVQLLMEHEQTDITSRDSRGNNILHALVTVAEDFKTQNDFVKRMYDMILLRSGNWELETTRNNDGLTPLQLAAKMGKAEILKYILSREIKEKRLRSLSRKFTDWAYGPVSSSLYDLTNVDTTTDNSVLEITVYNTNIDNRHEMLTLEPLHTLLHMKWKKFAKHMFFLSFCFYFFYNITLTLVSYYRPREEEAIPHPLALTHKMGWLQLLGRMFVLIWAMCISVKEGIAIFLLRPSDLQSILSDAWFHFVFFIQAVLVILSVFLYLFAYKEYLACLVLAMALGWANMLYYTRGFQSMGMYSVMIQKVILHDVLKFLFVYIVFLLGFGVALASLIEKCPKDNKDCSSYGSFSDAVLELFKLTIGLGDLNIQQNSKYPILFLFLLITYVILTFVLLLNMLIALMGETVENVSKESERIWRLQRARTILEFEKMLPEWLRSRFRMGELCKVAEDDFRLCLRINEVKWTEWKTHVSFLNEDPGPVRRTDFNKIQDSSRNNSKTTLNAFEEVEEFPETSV
Assay: 45Calcium uptake assay: inhibition of 2-APB induced cellular uptake of radioactive calcium
Type: cell-based
Conditions: human TRPV3 expressing CHO cells, 2-APB 500 μM; for inhibition at 1 µM: 1 μM test compound, read-out: Percentage Inhibition (1 μM); for inhibition at 10 µM: 10 μM test compound, read-out: Percentage Inhibition (10 μM); for IC50: class symbol
Outline: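 CHO cells expressing human TRPV3 were preincubated with compound for 10 min (0.5% DMSO final), then given 500 μM 2-APB plus 5 μCi/ml 45Ca2+ for 4 min. Lysate radioactivity was counted by scintillation; responses as % of maximal without antagonist, with IC50 by nonlinear regression.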

inhibition at 1 µM | inhibition at 10 µM | IC50 | SMILES
93.3% | 98.2% | 50 to 100 nM | COc1cccc(/C=C/c2nc3cccnc3n2-c2ccc(C#N)cn2)c1OCC1CCC1 [Example 90, 6-[2-{(E)-2-[2-(Cyclobutylmethoxy)-3-methoxyphenyl]vinyl}-3H-imidazo[4,5-b]pyridine-3-yl]nicotinonitrile]
97% | 98.9% | 50 to 100 nM | CCCCCOc1c(/C=C/c2nc3cc(F)c(F)cc3n2-c2ccc(C#N)cn2)cccc1OC(F)F [Example 82, 6-(2-{(E)-2-[3-(Difluoromethoxy)-2-pentyloxyphenyl]vinyl}-5,6-difluoro-1H-benzimidazol-1-yl)nicotinonitrile]
95.3% | 99.7% | 100 to 500 nM | COc1cccc(/C=C/c2nc3cccnc3n2-c2ccc(C#N)cn2)c1OC1CCCC1 [Example 91, 6-{2-[(E)-2-(2-[Cyclopentyloxy]-3-methoxyphenyl)vinyl]-3H-imidazo[4,5-b]pyridin-3-yl}nicotinonitrile]
34.4% | 90.7% |  | COc1cccc(/C=C/c2nc3cc(F)c(F)cc3n2-c2ccc(C(N)=O)nn2)c1OC1CCCC1 [Example 75, 6-{2-[(E)-2-(2-Cyclopentyloxy-3-methoxyphenyl)vinyl]-5,6-difluoro-1H-benzimidazol-1-yl}pyridazine-3-carboxamide]
93.2% | 98.7% | 50 to 100 nM | CCC(CC)Oc1c(/C=C/c2nc3cc(F)c(F)cc3n2-c2ccc(C#N)cn2)cccc1OC [Example 77, 6-{2-[(E)-2-(2-(1-ethylpropoxy)-3-methoxyphenyl)vinyl]-5,6-difluoro-1H-benzimidazol-1-yl}nicotinonitrile]
93.7% | 97.8% | 50 to 100 nM | COc1cccc(/C=C/c2nc3cc(Cl)cnc3n2-c2ccc(C#N)cn2)c1OC1CCCC1 [Example 95, 6-{6-Chloro-2-[(E)-2-(2-(cyclopentyloxy)-3-methoxyphenyl)vinyl]-3H-imidazo[4,5-b]pyridin-3-yl}nicotinonitrile]
86.7% | 97.5% | 100 to 500 nM | COc1cccc(/C=C/c2nc3ccccc3n2-c2ccc(C(F)(F)F)cn2)c1OC(C)C [Example 25, 2-[(E)-2-(2-Isopropoxy-3-methoxyphenyl)vinyl]-1-(5-trifluoromethylpyridin-2-yl)-1H-benzimidazole]
97.6% | 98.8% | 50 to 100 nM | COc1cccc(/C=C/c2nc3c(F)cc(F)cc3n2-c2ccc(C#N)cn2)c1OC1CCCC1 [Example 80, 6-{4,6-Difluoro-2-[(E)-2-(2-[cyclopentyloxy]-3-methoxyphenyl)vinyl]-1H-benzimidazol-1-yl}nicotinonitrile]
97.7% | 99% | 50 to 100 nM | COc1cccc(/C=C/c2nc3ccccc3n2-c2ccc(C#N)cn2)c1OCc1ccccc1C(F)(F)F [Example 16, 6-{2-[(E)-2-(3-Methoxy-2-{[2-(trifluoromethyl)benzyl]oxy}phenyl)vinyl]-1H-benzimidazole-1-yl}nicotinonitrile]
94.5% | 98% | 50 to 100 nM | COc1cccc(/C=C/c2nc3cc(Cl)cnc3n2-c2ccc(C#N)cn2)c1OCC1CCC1 [Example 94, 6-(6-Chloro-2-{(E)-2-[2-(cyclobutylmethoxy)-3-methoxyphenyl]vinyl}-3H-imidazo[4,5-b]pyridin-3-yl)nicotinonitrile]

The next lines start with the molecule.

SMILES | inhibition at 1 µM | inhibition at 10 µM | IC50
COc1cccc(/C=C/c2nc3ccccc3n2-c2ccc(C(F)(F)F)cn2)c1OCC1CC1 [Example 26] | 70.6% | 91.6% | > 500 nM
COc1cccc(/C=C/c2nc3ccccc3n2-c2ncc(C#N)s2)c1OC1CCCC1 [Example 48, 2-{2-[(E)-2-(2-[Cyclopentyloxy]-3-methoxyphenyl)vinyl]-1H-benzimidazol-1-yl}-1,3-thiazole-5-carbonitrile] | 43.5% | 75.8% | 
COc1cccc(/C=C/c2nc3ccccc3n2-c2ccc(C(F)(F)F)cn2)c1OC1CCCC1 [Example 27, 2-[(E)-2-(2-Cyclopentyloxy-3-methoxyphenyl)vinyl]-1-[5-(trifluoromethyl)pyridin-2-yl]-1H-benzimidazole] | 41.8% | 94.7% | 
COc1cccc(/C=C/c2nc3ccccc3n2-c2ncccc2C#N)c1OC1CCCC1 [Example 7, 2-{2-[(E)-2-(2-Cyclopentyloxy-3-methoxyphenyl)vinyl]-1H-benzimidazol-1-yl}nicotinonitrile] | 6.4% | 92.8% | 
COc1cccc(/C=C/c2nc3ccccc3n2-c2ccc(F)c(C#N)c2)c1OCC1CC1 [Example 38] | 48.3% | 59.2% | 
COC(=O)c1ccc(-n2c(/C=C/c3cccc(OC)c3OC3CCCC3)nc3ccc(F)cc32)nc1 [Example 60, Methyl 6-{2-[(E)-2-(2-Cyclopentyloxy-3-methoxyphenyl)vinyl]-6-fluoro-1H-benzimidazol-1-yl}nicotinate] | 32.1% | 30.2% | 
N#Cc1ccc(-n2c(/C=C/c3cccc(OC(F)F)c3OC3CCCC3)nc3cccnc32)nc1 [Example 98, 6-(2-{(E)-2-[2-(Cyclopentyloxy)-3-difluoromethoxyphenyl]vinyl}-3H-imidazo[4,5-b]pyridin-3-yl)nicotinonitrile] | 95.9% | 100% | 100 to 500 nM
COc1cccc(/C=C/c2nc3ccccc3n2-c2ncc(Cl)cc2Cl)c1OCc1ccccc1F [Example 6, 1-(3,5-Dichloropyridin-2-yl)-2-{(E)-2-[2-(2-fluorobenzyloxy)-3-methoxyphenyl]vinyl}-1H-benzimidazole] | 66.8% | 89% | > 500 nM
COc1cccc(/C=C/c2nc3ccccc3n2-c2ccc(C(F)(F)F)cc2)c1OCC1CC1 [Example 37, 2-[(E)-2-(2-Cyclopropylmethoxy-3-methoxyphenyl)vinyl]-1-[4-(trifluoromethyl)phenyl]-1H-benzimidazole] | 72.2% | 84.6% | 100 to 500 nM
COc1cccc(/C=C/c2nc3ccccc3n2Cc2ccc(F)cc2F)c1OCC1CC1 [Example 41, 1-(2,4-Difluorobenzyl)-2-[(E)-2-(2-cyclopropylmethoxy-3-methoxyphenyl)vinyl]-1H-benzimidazole] | 57.7% | 86.5% | 
COc1cccc(/C=C/c2nc3ccccc3n2-c2nc(C)c(C#N)s2)c1OC1CCCC1 [Example 49, 2-{2-[(E)-2-(2-Cyclopentyloxy-3-methoxyphenyl)vinyl]-1H-benzimidazol-1-yl}-4-methyl-1,3-thiazole-5-carbonitrile] | 56.1% | 76.9% | 
N#Cc1ccc(-n2c(/C=C/c3cccc(OC(F)F)c3OC3CCCC3)nc3cc(Cl)cnc32)nc1 [Example 103, 6-(6-Chloro-2-{(E)-2-[2-(cyclopentyloxy)-3-difluoromethoxyphenyl]vinyl}-3H-imidazo[4,5-b]pyridin-3-yl)nicotinonitrile] | 98.3% | 97.8% | 50 to 100 nM
COc1cccc(/C=C/c2nc3ccccc3n2-c2ncc(Br)cn2)c1OC1CCCC1 [Example 23, 1-(5-Bromopyrimidin-2-yl)-2-[(E)-2-(2-cyclopentyloxy-3-methoxyphenyl)vinyl]-1H-benzimidazole] | 56% | 84.5% | 
CCCCOc1c(/C=C/c2nc3ccccc3n2-c2ccc(C#N)cn2)cccc1OC [Example 8, 6-{2-[(E)-2-(2-Butoxy-3-methoxyphenyl)vinyl]-1H-benzimidazol-1-yl}nicotinonitrile] | 91.6% | 97% | 100 to 500 nM
CCOC(=O)c1ccc(-n2c(/C=C/c3cccc(OC)c3OC3CCCC3)nc3ccccc32)nn1 [Example 19, Ethyl 6-{2-[(E)-2-(2-[Cyclopentyloxy]-3-methoxyphenyl)vinyl]-1H-benzimidazol-1-yl}pyridazine-3-carboxylate] | 82.9% | 95.9% | 100 to 500 nM
